Molecules are shown by their SMILES. Like-named read-outs stand apart in the source and are kept apart here. A value given as a limit tells only on which side of the number the result lay.

Consider 45 compounds from EP1166781A1, “PROTEASOME INHIBITORS” (KYOWA HAKKO KOGYO CO., LTD., priority 1999, dated 2000).

In one test the target is T1, proteasome (Homo sapiens, UniProt P28074).
T1 construct: The obtained high molecular fraction (molecular weight >500K) was used as an enzyme solution for the detection of proteasome activity; endogenous in cells; host or cells: HeLa S3 cells: homogenate, 100,000G supernatant, >500K fraction from Centricon-500
Description: Proteasome inhibitory activity (Suc-Leu-Leu-Val-Tyr-AMC cleavage, crude enzyme solution from HeLa S3 cell extract). It is filed as biochemical. How it is done:
1 x 10^9 of HeLa S3 cells were dispersed in 5 ml of the buffer A [20 mmol/L of Tris (pH 7.5), 2 mmol/L of ATP, 5 mmol/L of MgCl2, 1 mmol/L of dithiothreitol (DTT)], and then homogenized at 4°C. The supernatant centrifuged at 100,000G was concentrated by a Centricon-500 (supplied by Amicon) and diluted with 2.5 ml of the buffer B [25 mmol/L of Tris/HCl (pH 7.5), 2 mmol/L of ATP, 1 mmol/L of DTT, 20% of glycerol]. The obtained high molecular fraction (molecular weight >500K) was used as an enzyme solution for the detection of proteasome activity. Suc-Leu-Leu-Val-Tyr-AMC [Suc: Succinyl; AMC: Aminomethylcoumarin](supplied by Peptide Institute, Inc.) was used as a substrate for measuring inhibitory activity for proteasome (stored as a 2 mmol/L DMSO solution). The reaction was carried out by the following method using 96-well microtiter plates. To 96 µl of a reaction buffer [20 mmol/L of Tris/HCl (pH 8), 0.5 mmol/L of EDTA, 0.04% of sodium dodecylsulfate (SDS)] were added 1 µl of a drug solution (DMSO) and 2 µl of an enzyme solution followed by adding 1 µl of a substrate solution thereto, and then the mixture was incubated at 37°C for one hour. […]

The subject of test [1] is Human colon cancer, WiDr cells. Description: Antiproliferative activity in WiDr cells (MTT, 72 hours). The class given is cell-based. Here is the method: Human colon cancer, WiDr cells suspended in MEM media containing 10% of fetal calf serum were seeded in 96-well microtiter plates at 2 x 10^3cells/well, and precultured in an incubator with 5% of CO2 at 37°C for 24 hours. Then, each compound diluted appropriately with the media was added into the well at 50 µl/well. At this time, a final concentration of each compound is up to 100 µmol/l or 1 µmol/l. The cells were cultured in the incubator with 5% of CO2 at 37°C for additional 72 hours. At 5 hours before the culturing was terminated, MTT [3-(4,5-dimethylthiazol-2-yl)-2,5-[…] bromide] dissolved in the medium at a final concentration of 1 mg/mL was added into the well at 50 µl/well. After the culturing, dimethyl sulfoxide was added to the well at 150 µl/well, and the plate was vigorously stirred using a plate mixer to dissolve crystals of MTT-formazan completely. […]

Setting [2] is: crude proteasome fraction (>500K) from HeLa S3 cells, substrate Suc-Leu-Leu-Val-Tyr-AMC, 37°C for one hour, read-out: IC50.
The mark [3] stands for this setting: crude proteasome fraction (>500K) from HeLa S3 cells, substrate Suc-Leu-Leu-Val-Tyr-AMC, 37°C for one hour.

As to `CCC(C)C1C(=O)OC1C(=O)NC1CC1CC(NC(=O)C(C)NC(=O)OC(C)(C)C)C(=O)OC` (centres unmarked) [Compound 1], the results for the IC50 (on proteasome; in test [1]) were 50 nM and 790 nM, respectively.

Regarding `CCC(C)C1C(=O)OC1C(=O)NC1CC1CC(NC(=O)C(C)N)C(=O)OC` (centres unmarked) [Compound 2], the IC50 (in general, the concentration needed to halve the response being measured) on proteasome (setting [2]) stood at 70 nM.

For `CCC(C)C1C(=O)OC1C(=O)NC1CC1CC(NC(=O)C(C)NC(=O)OC(C)(C)C)C(=O)OCc1ccccc1` (centres unmarked) [Compound 3], the IC50 came to 15 nM on proteasome (setting [2]) and 37 nM in test [1].

For `CCC(C)C1C(=O)OC1C(=O)NC1CC1CC(NC(=O)C(C)NC(=O)OC(C)(C)C)C(=O)OCc1ccc2ccccc2c1` (centres unmarked) [Compound 5], the IC50 came out at 6.2 nM at proteasome (setting [2]) and 30 nM in test [1].

As for `CCC(C)C1C(=O)OC1C(=O)NC1CC1CC(NC(=O)C(C)N)C(=O)OCc1ccc2ccccc2c1` (centres unmarked) [Compound 6], the IC50 on proteasome (setting [2]) stood at 38 nM; in test [1], 40 nM.

Consider `CCC(C)C1C(=O)OC1C(=O)NC1CC1CC(NC(=O)C(C)NC(=O)OC(C)(C)C)C(=O)OCc1c2ccccc2cc2ccccc12` (centres unmarked) [Compound 7], for which the IC50 at proteasome (setting [2]) amounted to 17 nM; in test [1] it was 700 nM.

With `CCC(C)C1C(=O)OC1C(=O)NC1CC1CC(NC(=O)C(C)NC(=O)OC(C)(C)C)C(=O)OCc1cccc(F)c1` (centres unmarked) [Compound 8], the IC50 on proteasome (setting [2]) was 14 nM.

With `C=CCOC(=O)C(CC1CC1NC(=O)C1OC(=O)C1C(C)CC)NC(=O)C(C)NC(=O)OC(C)(C)C` (centres unmarked) [Compound 9], the IC50 came to 26 nM on proteasome (setting [2]) and 10 nM in test [1].

In the case of `C=CCOC(=O)C(CC1CC1NC(=O)C1OC(=O)C1C(C)CC)NC(=O)C(C)N` (centres unmarked) [Compound 10], the IC50 at proteasome (setting [2]) came out at 46 nM; in test [1], 68 nM.

In the case of `CCCCOC(=O)C(CC1CC1NC(=O)C1OC(=O)C1C(C)CC)NC(=O)C(C)NC(=O)OC(C)(C)C` (centres unmarked) [Compound 11], the IC50 was found to be 19 nM at proteasome (setting [2]) and 10 nM in test [1].

As for `CCCCOC(=O)C(CC1CC1NC(=O)C1OC(=O)C1C(C)CC)NC(=O)C(C)N` (centres unmarked) [Compound 12], the IC50 was 51 nM on proteasome (setting [2]) and less than 41 nM in test [1].

Take `CCC(C)C1C(=O)OC1C(=O)NC1CC1CC(NC(=O)C(C)NC(=O)OC(C)(C)C)C(=O)OC(C)(C)C` (centres unmarked) [Compound 13]: the IC50 on proteasome (setting [2]) worked out at 30 nM; in test [1], 490 nM.

For the compound `CCC(C)C1C(=O)OC1C(=O)NC1CC1CC(NC(=O)C(C)NC(=O)OC(C)(C)C)C(=O)OCC1CCCCC1` (centres unmarked) [Compound 14], the IC50 stood at 18 nM at proteasome (setting [3]) and 300 nM in test [1].

For the compound `CCC(C)C1C(=O)OC1C(=O)NC1CC1CC(NC(=O)C(C)NC(=O)OC(C)(C)C)C(=O)OCC[Si](C)(C)C` (centres unmarked) [Compound 15], the figures for the IC50 (on proteasome; in test [1]) were 18 nM and 200 nM, respectively.

Turning to `CCC(C)C1C(=O)OC1C(=O)NC1CC1CC(NC(=O)C(C)NC(=O)OC(C)(C)C)C(=O)OCCO` (centres unmarked) [Compound 16], the IC50 came to 52 nM at proteasome (setting [2]) and 950 nM in test [1].

Turning to `CCC(C)C1C(=O)OC1C(=O)NC1CC1CC(NC(=O)C(C)NC(=O)OC(C)(C)C)C(=O)OCOC` (centres unmarked) [Compound 17], the IC50 was found to be 19 nM at proteasome (setting [2]) and 180 nM in test [1].

As to `CCC(C)C1C(=O)OC1C(=O)NC1CC1CC(NC(=O)C(C)NC(=O)OC(C)(C)C)C(=O)OCC(=O)c1ccccc1` (centres unmarked) [Compound 18], the results for the IC50 (on proteasome (setting [2]); in test [1]) were 12 nM and 200 nM, respectively.

For `CCC(C)C1C(=O)OC1C(=O)NC1CC1CC(NC(=O)C(C)NC(=O)OC(C)(C)C)C(=O)NCc1ccccc1` (centres unmarked) [Compound 19], the figures for the IC50 (at proteasome (setting [2]); in test [1]) were 6.2 nM and 190 nM, respectively.

For the compound `CCC(C)C1C(=O)OC1C(=O)NC1CC1CC(NC(=O)C(C)N)C(=O)NCc1ccccc1` (centres unmarked) [Compound 20], the IC50 on proteasome (setting [2]) worked out at 11 nM; in test [1], 57 nM.

On to `CCC(C)C1C(=O)OC1C(=O)NC1CC1CC(NC(=O)C(C)NC(=O)OC(C)(C)C)C(=O)NCc1cccc2ccccc12` (centres unmarked) [Compound 21], for which the half-inhibitory concentration (IC50) is 4 nM at proteasome and 520 nM in test [1].

Consider `CCC(C)C1C(=O)OC1C(=O)NC1CC1CC(NC(=O)C(C)N)C(=O)NCc1cccc2ccccc12` (centres unmarked) [Compound 22], for which the IC50 is 12 nM at proteasome (setting [2]) and less than 41 nM in test [1].

For the compound `CCC(C)C1C(=O)OC1C(=O)NC1CC1CC(NC(=O)C(C)NC(=O)OC(C)(C)C)C(=O)NNc1ccccc1` (centres unmarked) [Compound 23], the IC50 at proteasome came out at 17 nM; in test [1], 410 nM.

Take `CCCCNC(=O)C(CC1CC1NC(=O)C1OC(=O)C1C(C)CC)NC(=O)C(C)NC(=O)OC(C)(C)C` (centres unmarked) [Compound 24]: the values for the IC50 (against proteasome; in test [1]) were 15 nM and 20 nM, respectively.

Take `CCCCNC(=O)C(CC1CC1NC(=O)C1OC(=O)C1C(C)CC)NC(=O)C(C)N` (centres unmarked) [Compound 25]: the IC50 against proteasome came to 24 nM; in test [1] it was 59 nM.

In the case of `CCC(C)C1C(=O)OC1C(=O)NC1CC1CC(NC(=O)C(C)NC(=O)OC(C)(C)C)C(=O)N1CCOCC1` (centres unmarked) [Compound 26], the IC50 on proteasome (setting [2]) was 13 nM; in test [1], 160 nM.

In turn, `CCC(C)C1C(=O)OC1C(=O)NC1CC1CC(NC(=O)C(C)NC(=O)OC(C)(C)C)C(=O)N[C@@H](C)C(=O)OCc1ccccc1` (some centres unmarked) [Compound 27] gave an IC50 against proteasome of 3 nM.

As to `CCC(C)C1C(=O)OC1C(=O)NC1CC1CC(NC(=O)C(C)NC(=O)OCc1ccccc1)C(=O)OCc1ccccc1` (centres unmarked) [Compound 28], the values for the IC50 (at proteasome (setting [2]); in test [1]) were 5 nM and 93 nM, respectively.

Turning to `CCC(C)C1C(=O)OC1C(=O)NC1CC1CC(NC(=O)C(C)NC(=O)OCc1ccc(Br)cc1)C(=O)OCc1ccccc1` (centres unmarked) [Compound 29], the IC50 at proteasome (setting [2]) turned out to be 5 nM.

With `CCC(C)C1C(=O)OC1C(=O)NC1CC1CC(NC(=O)C(C)NC(=O)NCc1ccccc1)C(=O)OCc1ccccc1` (centres unmarked) [Compound 30], the results for the IC50 (at proteasome (setting [2]); in test [1]) were 4 nM and 64 nM, respectively.

`CCC(C)C1C(=O)OC1C(=O)NC1CC1CC(NC(=O)C(C)NC(=O)NC(C)C)C(=O)OCc1ccccc1` (centres unmarked) [Compound 31]: the figures for the IC50 (on proteasome (setting [2]); in test [1]) were 11 nM and 113 nM, respectively.

With `CCC(C)C1C(=O)OC1C(=O)NC1CC1CC(NC(=O)C(C)N1C(=O)c2ccccc2C1=O)C(=O)OCc1ccccc1` (centres unmarked) [Compound 42], the midpoint of inhibition on proteasome, the IC50, lay at 22 nM.

As to `CCC(C)C1C(=O)OC1C(=O)NC1CC1CC1NC(=O)C(C)NC1=O` (centres unmarked) [Compound 44], at proteasome (setting [3]), the IC50 was determined as 47 nM.

At proteasome (setting [3]), `CC(C)CC1C(=O)OC1C(=O)NCC(NC(=O)OC(C)(C)C)C(=O)OCc1ccccc1` (centres unmarked) [Compound 47] yielded an IC50 of 150 nM.

Regarding `CC(C)CC1C(=O)OC1C(=O)NCCCCC(NC(=O)OC(C)(C)C)C(=O)OCc1ccccc1` (centres unmarked) [Compound 48], the IC50 at proteasome (setting [2]) is 50 nM.

`CC(C)CC1C(=O)OC1C(=O)NCCCCC(NC(=O)C(C)NC(=O)OC(C)(C)C)C(=O)OCc1ccccc1` (centres unmarked) [Compound 49]: the IC50 at proteasome (setting [2]) is 30 nM.

Take `CC(C)CC1C(=O)OC1C(=O)NCCCCCNC(=O)C(C)NC(=O)OC(C)(C)C` (centres unmarked) [Compound 53]: the IC50 at proteasome (setting [2]) worked out at 250 nM.

Consider `CC(C)CC1C(=O)OC1C(=O)NCCCCCNC(=O)C1C(OCc2ccccc2)CCN1C(=O)OC(C)(C)C` (centres unmarked) [Compound 54], for which, on proteasome (setting [2]), the IC50 turned out to be 47 nM.

As to `CC(C)CC1C(=O)OC1C(=O)NCCCCCC(=O)OCc1ccccc1` (centres unmarked) [Compound 55], the IC50 at proteasome (setting [2]) is 77 nM.

In the case of `CC(C)CC1C(=O)OC1C(=O)NCCCC(NC(=O)OC(C)(C)C)C(=O)OCc1ccccc1` (centres unmarked) [Compound 58], at proteasome (setting [2]), the IC50 turned out to be 26 nM.

Consider `CC(C)C[C@@H]1C(=O)O[C@H]1C(=O)NCCC[C@H](NC(=O)[C@H](C)NC(=O)OC(C)(C)C)C(=O)OCc1ccccc1` [Compound 59], for which the IC50 at proteasome (setting [2]) came out at 33 nM.

Take `CC(C)CC1C(=O)OC1C(=O)NCCCC(NC(=O)C(C)N)C(=O)OCc1ccccc1` (centres unmarked) [Compound 60]: on proteasome (setting [2]), the IC50 was found to be 40 nM.

Take `CC(C)=C[C@@H]1C(=O)O[C@H]1C(=O)NCCCC[C@H](NC(=O)[C@H](C)NC(=O)OC(C)(C)C)C(=O)NCc1cccc2ccccc12` [Compound 74]: the IC50 on proteasome (setting [2]) was 3 nM.

For `CC(C)CC1C(=O)OC1C(=O)NCCCCC(NC(=O)C(C)NC(=O)OC(C)(C)C)C(=O)NCc1cccc2ccccc12` (centres unmarked) [Compound 75], the IC50 on proteasome (setting [2]) turned out to be 1 nM.

`COc1ccc(CC(NC(=O)OC(C)(C)C)C(=O)OCc2ccccc2)cc1NC(=O)C1OC(=O)C1CC(C)C` (centres unmarked) [Compound 81] had an IC50 on proteasome (setting [3]) of 500 nM.

Regarding `CC(C)C[C@@H]1C(=O)O[C@H]1C(=O)Nc1cc(C[C@H](NC(=O)OC(C)(C)C)C(=O)OCc2ccccc2)ccc1OCc1ccccc1` [Compound 82], the IC50 at proteasome (setting [2]) amounted to 100 nM.
